The record followed here is patent publication US7951815B2, “Substituted 1,4,8-triazaspiro [4,5]decan-2-one compounds” (Gruenenthal GmbH, priority 2004, dated 2011).

Structures can show the parent of a compound that is named as a salt.

T1 sequence (P31652 whole entry): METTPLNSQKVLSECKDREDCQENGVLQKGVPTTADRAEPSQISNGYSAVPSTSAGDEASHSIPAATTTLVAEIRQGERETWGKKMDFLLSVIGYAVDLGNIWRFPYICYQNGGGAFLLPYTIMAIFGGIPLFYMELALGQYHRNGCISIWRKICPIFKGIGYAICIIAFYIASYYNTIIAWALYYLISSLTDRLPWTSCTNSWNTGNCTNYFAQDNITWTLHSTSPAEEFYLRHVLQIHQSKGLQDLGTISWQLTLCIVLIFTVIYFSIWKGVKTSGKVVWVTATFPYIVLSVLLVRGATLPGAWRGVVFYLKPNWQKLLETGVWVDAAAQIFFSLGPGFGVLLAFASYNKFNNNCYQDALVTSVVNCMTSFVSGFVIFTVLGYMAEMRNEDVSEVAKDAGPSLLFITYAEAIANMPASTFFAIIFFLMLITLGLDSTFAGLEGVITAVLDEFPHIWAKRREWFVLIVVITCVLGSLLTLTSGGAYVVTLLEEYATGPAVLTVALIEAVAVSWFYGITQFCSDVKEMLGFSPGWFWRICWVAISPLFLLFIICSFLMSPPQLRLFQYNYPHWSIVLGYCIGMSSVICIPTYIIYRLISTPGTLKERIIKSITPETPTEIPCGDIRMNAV

One experiment addresses T1, 5-HT transporter (Rattus norvegicus, UniProt P31652).
T1 construct: synaptosomes of rat brain areas are freshly isolated; from tissue; host or cells: rat brain synaptosomes (P2 fraction) from marrow and pons
The experiment is described as follows: Inhibition of 5-HT uptake in rat brain synaptosomes. To be noted: read-out: Uptake 5-HT, % inhibition; Table II; rat, 1 μM. Type of experiment: biochemical.
With `CCC(CC)C(=O)N1CCC2(CC1)NC(CCSC)C(=O)N2Cc1ccccc1` (centres unmarked) [Example 33, 1-benzyl-8-(2-ethylbutyryl)-3-(2-methylsulfanylethyl)-1,4,8-triazaspiro[4,5]decan-2-one hydrochloride], the inhibition at 1 µM is 49%.

Staying with this experiment, now noted: read-out: Uptake 5-HT, % inhibition; Table III; rat, 1 μM.
Turning to `CSCCC1NC2(CCN(C(=O)c3c(F)ccc(C)c3F)CC2)N(C)C1=O` (centres unmarked) [Example 231, 8-(2,6-Difluoro-3-methylbenzoyl)-1-methyl-3-(2-methylsulfanylethyl)-1,4,8-triazaspiro[4,5]decan-2-one], the inhibition at 1 µM was determined as 31%.
Regarding `CCOC(=O)CN1C(=O)C(CCSC)NC12CCN(C(=O)CC)CC2` (centres unmarked) [Example 263, Ethyl [3-(2-methylsulfanylethyl)-2-oxo-8-propionyl-1,4,8-triazaspiro[4,5]dec-1-yl]acetate], the inhibition at 1 µM came to 50%.
Still for that read-out and setting: in the case of `C#CCN1C(=O)C(Cc2ccccc2)NC12CCN(C(=O)c1cc(C)on1)CC2` (centres unmarked) [Example 251, 3-Benzyl-8-(5-methylisoxazole-3-carbonyl)-1-prop-2-ynyl-1,4,8-triazaspiro[4,5]decan-2-one] it was 50%; in that of `CCCCN1C(=O)C(CCSC)NC12CCN(C(=O)c1ccc(OC)cc1)CC2` (centres unmarked) [Example 144, 1-Butyl-8-(4-methoxybenzoyl)-3-(2-methylsulfanylethyl)-1,4,8-triazaspiro[4,5]decan-2-one], 51%; in that of `CCC(CC)C(=O)N1CCC2(CC1)NCC(=O)N2Cc1ccccc1C#N` [Example 68, 2-[8-(2-Ethylbutyryl)-2-oxo-1,4,8-triazaspiro[4,5]dec-1-ylmethyl]benzonitrile], 75%.
The same measure, in the same setting: in the case of `CSCCC1NC2(CCN(C(=O)c3ccco3)CC2)N(Cc2ccc(F)cc2)C1=O` (centres unmarked) [Example 147, 1-(4-Fluorobenzyl)-8-(furan-2-carbonyl)-3-(2-methylsulfanylethyl)-1,4,8-triazaspiro[4,5]decan-2-one] it was 45%.
Regarding `C#CCN1C(=O)C(Cc2ccccc2)NC12CCN(C(=O)c1snnc1C)CC2` (centres unmarked) [Example 244, 3-Benzyl-8-(4-methyl[1,2,3]thiadiazole-5-carbonyl)-1-prop-2-ynyl-1,4,8-triazaspiro[4,5]decan-2-one], the inhibition at 1 µM was 51%.
`N#Cc1cccc(CN2C(=O)CNC23CCN(C(=O)c2ccccc2C(F)(F)F)CC3)c1` [Example 308, 3-[2-Oxo-8-(2-trifluoromethylbenzoyl)-1,4,8-triazaspiro[4,5]dec-1-ylmethyl]benzonitrile]: the inhibition at 1 µM is 59%.
Still for that read-out and setting: in the case of `COCCOCC(=O)N1CCC2(CC1)NC(CCSC)C(=O)N2Cc1ccccc1C#N` (centres unmarked) [Example 114, 2-[8-[2-(2-Methoxyethoxy)acetyl]-3-(2-methylsulfanylethyl)-2-oxo-1,4,8-triazaspiro[4,5]dec-1-ylmethyl]benzonitrile] it was 53%; in that of `COCC(=O)N1CCC2(CC1)NC(C(C)C)C(=O)N2Cc1cccc(C#N)c1` (centres unmarked) [Example 282, 3-[3-Isopropyl-8-(2-methoxyacetyl)-2-oxo-1,4,8-triazaspiro[4,5]dec-1-ylmethyl]benzonitrile], 49%; in that of `COC(=O)c1ccc(CN2C(=O)CNC23CCN(C(=O)C2CCCCC2)CC3)cc1` [Example 286, Methyl 4-(8-cyclohexanecarbonyl-2-oxo-1,4,8-triazaspiro[4,5]dec-1-ylmethyl)benzoate], 47%.
Turning to `COc1cc(C(=O)N2CCC3(CC2)NCC(=O)N3Cc2cccc(C#N)c2)cc(OC)c1OC` [Example 277, 3-[2-Oxo-8-(3,4,5-trimethoxybenzoyl)-1,4,8-triazaspiro[4,5]dec-1-ylmethyl]benzonitrile], the inhibition at 1 µM was found to be 43%.
Same read-out and setting: in the case of `CSc1ncccc1C(=O)N1CCC2(CC1)NC(Cc1ccccc1)C(=O)N2C` (centres unmarked) [Example 143, 3-Benzyl-1-methyl-8-(2-methylsulfanylpyridin-3-carbonyl)-1,4,8-triazaspiro[4,5]decan-2-one] it was 42%; in that of `C#CCN1C(=O)C(CC(C)C)NC12CCN(C(=O)c1ccc(OC(F)(F)F)cc1)CC2` (centres unmarked) [Example 234, 3-Isobutyl-1-prop-2-ynyl-8-(4-trifluoromethoxybenzoyl)-1,4,8-triazaspiro[4,5]decan-2-one], 45%.
Consider `Cc1cc(C(=O)N2CCC3(CC2)NC(=O)C(C(C)C)N3)ccc1Br` (centres unmarked) [Example 130, 8-(4-Bromo-3-methylbenzoyl)-3-isopropyl-1,4,8-triazaspiro[4,5]decan-2-one], for which the inhibition at 1 µM stood at 32%.
Same read-out and setting: in the case of `CSCCC1NC2(CCN(C(=O)c3cccnc3Oc3ccccc3)CC2)N(Cc2ccccc2)C1=O` (centres unmarked) [Example 171, 1-Benzyl-3-(2-methylsulfanylethyl)-8-(2-phenoxypyridin-3-carbonyl)-1,4,8-triazaspiro[4,5]decan-2-one] it was 62%; in that of `COC(=O)c1ccc(CN2C(=O)CNC23CCN(C(=O)c2cccnc2SC)CC3)cc1` [Example 254, Methyl 4-[8-(2-methylsulfanylpyridin-3-carbonyl)-2-oxo-1,4,8-triazaspiro[4,5]dec-1-ylmethyl]benzoate], 34%; in that of `C#CCN1C(=O)C(CCSC)NC12CCN(C(=O)CCCOc1ccccc1)CC2` (centres unmarked) [Example 222, 3-(2-Methylsulfanylethyl)-8-(4-phenoxybutyryl)-1-prop-2-ynyl-1,4,8-triazaspiro[4,5]decan-2-one], 60%.
Still for that read-out and setting: in the case of `C#CCN1C(=O)C(Cc2ccccc2)NC12CCN(C(=O)c1ccco1)CC2` (centres unmarked) [Example 186, 3-Benzyl-8-(furan-2-carbonyl)-1-prop-2-ynyl-1,4,8-triazaspiro[4,5]decan-2-one] it was 32%; in that of `CC(C)C1NC2(CCN(C(=O)c3ccco3)CC2)N(Cc2ccccc2)C1=O` (centres unmarked) [Example 228, 1-Benzyl-8-(furan-2-carbonyl)-3-isopropyl-1,4,8-triazaspiro[4,5]decan-2-one], 32%; in that of `CCCCN1C(=O)C(CCSC)NC12CCN(C(=O)c1cc(OC)cc(OC)c1)CC2` (centres unmarked) [Example 229, 1-Butyl-8-(3,5-dimethoxybenzoyl)-3-(2-methylsulfanylethyl)-1,4,8-triazaspiro[4,5]decan-2-one], 36%.
`CN1C(=O)C(Cc2ccccc2)NC12CCN(C(=O)c1ccc(C(F)(F)F)c(F)c1)CC2` (centres unmarked) [Example 191, 3-Benzyl-8-(3-fluoro-4-trifluoromethylbenzoyl)-1-methyl-1,4,8-triazaspiro[4,5]decan-2-one]: the inhibition at 1 µM worked out at 30%.
For the molecule `COc1ccc(CC(=O)N2CCC3(CC2)NCC(=O)N3Cc2ccccc2F)cc1` [Example 320, 1-(2-Fluorobenzyl)-8-[2-(4-methoxyphenyl)acetyl]-1,4,8-triazaspiro[4,5]decan-2-one], the inhibition at 1 µM was determined as 38%.
Same read-out and setting: in the case of `CSCCC1NC2(CCN(C(=O)c3cccnc3Oc3ccccc3)CC2)N(Cc2ccccc2F)C1=O` (centres unmarked) [Example 163, 1-(2-Fluorobenzyl)-3-(2-methylsulfanylethyl)-8-(2-phenoxypyridin-3-carbonyl)-1,4,8-triazaspiro[4,5]decan-2-one] it was 71%; in that of `CC(C)(C)CC(=O)N1CCC2(CC1)NC(=O)C(Cc1ccccc1)N2` (centres unmarked) [Example 110, 3-Benzyl-8-(3,3-dimethylbutyryl)-1,4,8-triazaspiro[4,5]decan-2-one], 33%.

By inhibition is commonly meant how much of the control response was suppressed.
